# PubChem BioAssay AID179 (DTP/NCI, 2004)
# Several values for one entry are separate records, joined by “and”; a condition that tells them apart may be missing. Equal entries are not always repeated. Activity calls are given as the source filed them.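 Rule for the calls: active = compounds giving half or more protection of infected cells from virus-caused growth loss, again on retest; inactive = the rest.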
# System: CEM cells HIV-1 protection, formazan growth assay
# Assay: NCI AIDS Antiviral Assay
# Details: for IC50: measured here: growth of uninfected CEM cells
# Method in brief: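 Human CEM cells, uninfected and HIV-1-infected, received five drug concentrations, and growth was read by soluble formazan assay. Compounds giving at least 50% protection were retested; reproducible 100% protection defined confirmed active.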
Structure (SMILES),EC50,IC50,outcome
C=CCN1CCC(C(=O)CC)(c2ccccc2)CC1,> 355 µM,166 µM,
CSc1nnc(CF)c(=O)[nH]1,> 200 µM,> 200 µM,
Cc1ccc(/C=C/CO)cc1,,,inactive
O=C(O)\C=C/C=C/C=C/C=C/C(=O)O,126 µM,135 µM,
O=COC1CC(n2ccc(=O)[nH]c2=O)OC1CO (stereo not given),> 4570 µM,263 µM,
O=C1NP23(OCCO2)Oc2ccccc2C3(C(F)(F)F)O1 (stereo not given),> 776 µM,389 µM,
COC(=O)/C(=C(/C)c1ccco1)P(=O)(OC)OC,> 200 µM,> 200 µM,
CN(C)/C=N/c1cc(=O)n(C)c(=O)n1C,,,inactive
Oc1ccc2ccccc2c1N=Nc1ccsc1,> 20.4 µM,> 20.4 µM,
[N-]=[N+]=NC1(Cc2ccccc2)C(=O)Nc2ccccc2C1=O (stereo not given),> 200 µM,105 µM,
O=C(c1ccc(Cl)cc1)c1ccc(OCC(=O)N2CCN(c3ccccc3)CC2)cc1,> 12 µM,> 12 µM,
Cc1oc2c(c1C(=O)c1ccccc1)C(=O)c1ccccc1C2=O,> 58.9 µM,11.7 µM,
N=C1OC(CN2CCN(c3ccccc3)CC2)CN1C(=O)Nc1ccccc1 (stereo not given),> 200 µM,> 200 µM,
CCO/N=[N+](\[O-])N(CC)CC,> 9770 µM,8710 µM,
Cc1ccc2sc3cc(=O)cc(C)c-3nc2c1,> 10.7 µM,> 10.7 µM,
COC1CCN(N(C)C)O1 (stereo not given),> 200 µM,> 200 µM,
O=c1ncc2[nH]c(=S)[nH]c2[nH]1,> 200 µM,> 200 µM,
N#CC(NNC(=O)Cc1ccccc1)c1c(O)ccc2ccccc12 (stereo not given),> 56.2 µM,3.89 µM,
C=C(C)S(=O)(=O)c1ccccc1,,,inactive
CCCCCCCCCCCCCCCCOP(=O)(O)OP(=O)(O)OCC1OC(n2ccc(N)nc2=O)C(O)C1O (stereo not given),174 µM and > 100 µM,,
Oc1ccc2c(c1)-c1c(c3ccccc3n1CCN1CCOCC1)CC2,> 200 µM,32.4 µM,
O=C1NC(=S)N(c2ccccc2)C1=O,> 200 µM,> 200 µM,
O=c1ccc(=O)n(CO)[nH]1,> 1780 µM,97.7 µM,
CCOC(=O)C(Cc1c2ccccc2cc2ccccc12)(NC(C)=O)C(=O)OCC,> 200 µM,> 200 µM,

Structure (SMILES),EC50,IC50,outcome
O=S(=O)(Nc1nnc2c3ccccc3ccn12)c1ccc(F)cc1S,214 µM,251 µM,
O=C(CCC(=O)N/N=C/c1ccccc1O)N/N=C/c1ccccc1O,,,inactive
CN(C1=NCCO1)c1cccc2c1CCCC2,> 200 µM,4.47 µM,
CCN1C[C@]2(COC)CCC(O)C34[C@@H]5C[C@@H]6C(O)[C@@H]5[C@](O)(C[C@@H]6OC)[C@@](O)([C@H]13)[C@@H](OC)[C@@H]42 (stereo not given in full),,,inactive
CC(/C=C/C(=O)c1sc(-n2nc(-c3ccccc3)cc2-c2ccccc2)nc1C)=C\c1ccccc1,> 27.5 µM,> 27.5 µM,
N#CCc1nc(-c2ccccc2)n[nH]1,> 200 µM,> 200 µM,
CCOC(=O)N/N=C(/OCC)c1ccccc1,> 200 µM,> 200 µM,
CCN1OC(C)(C)C2CCC(C)CC21 (stereo not given),> 1260 µM,> 1260 µM,
BrCc1ccc(CBr)c2c1-c1c(CBr)ccc3ccc(CBr)c-2c13,> 200 µM,22.9 µM,
CCOC(=O)C1C2CCC(C2=C(c2ccccc2)c2ccccc2)C1C(=O)O (stereo not given),> 234 µM,102 µM,
COC(=O)c1ccc(C)cc1C1CN=NC12Cc1cc(C)ccc1C2=O (stereo not given),> 200 µM,9.77 µM,
CC(CS(=O)(=O)O)NC(CO)(CO)CO (stereo not given),> 200 µM,> 200 µM,
CC(=O)OC1CCC2(C)C(CCC3C4CCC(C(C)OC(C)=O)C4NC(=O)CC32)C1 (stereo not given),,,inactive
CC1(C)CC2(C)OC(=N)C1(C#N)C2(C#N)C#N (stereo not given),> 200 µM,2.34 µM,
Cc1nnc(NS(=O)(=O)c2ccc(N=Nc3cc(N=Nc4ccc(S(=O)(=O)Nc5nnc(C)s5)cc4)c4c(NC(=O)C(Cl)Cl)cccc4c3OC(=O)C(Cl)Cl)cc2)s1 (tested in a mixture with another compound),,,inactive
O=C(Oc1cc(=O)c(OC(=O)c2ccccc2)co1)c1ccccc1,> 200 µM,110 µM,
CC1(C)C2CC(=O)C1(C)C(OCc1ccccc1)C2 (stereo not given),,,inactive
CC12CCC(C(Nc3ccccn3)C1=O)C2(C)C (stereo not given),,,inactive
CC1C(c2ccccc2)OC(N2CCOCC2)C(C)(C)CN1C (stereo not given),> 200 µM,> 200 µM,
Nc1nc(Cl)n2nc[n+](C3C=CC(=O)CC3)c2n1 (stereo not given),,,inactive
CC1CCCc2c(CC3CC(=O)NC(=O)C3)nc(N)nc21 (stereo not given),> 200 µM,> 200 µM,
C=Cc1cc[n+](CC(=O)c2ccc(-c3ccccc3)cc2)cc1,> 200 µM,45.7 µM,
O=C1C(=O)C(Br)(c2ccccc2)C(=O)C1c1ccccc1 (stereo not given),> 200 µM,> 200 µM,
CN(C)c1ccc(/C=C/c2ccnc3ccccc23)cc1,> 200 µM,10.7 µM,

Structure (SMILES),EC50,IC50,outcome
Cn1cnc([N+](=O)[O-])c1Sc1nnnn1-c1ccccc1,> 224 µM,10.7 µM,
O=c1nc(-c2ccccc2)cc(CC(O)c2ccc(Cl)c(Cl)c2)[nH]1 (stereo not given),> 20 µM,> 20 µM,
COc1ccc(/C=N/NS(=O)(=O)c2ccc(NC(C)=O)cc2)cc1,> 525 µM,> 525 µM,
Nc1ncnc2nc(C3OC(CO)C(O)C3O)[nH]c12 (stereo not given),> 70.8 µM,> 70.8 µM,
CCOC(=O)C1Cc2cc(C)c(C)cc2N(C)C1=O (stereo not given),> 200 µM,> 200 µM,
CC1(C)OC(=O)NC1=O,,,inactive
CC1(C)OP(=O)(c2ccccc2)C=C1Br (stereo not given),> 200 µM,> 200 µM,
CC(=O)CC(c1ccc2c(c1)OCO2)c1c(O)c2ccccc2oc1=O (stereo not given),> 200 µM,135 µM,
COc1cc2c(c(OC)c1OC)C(=O)[C@H](O)[C@H]2NC(N)=O,> 200 µM,105 µM,
CCOC(=O)/C=C/CC(C)(C)COC(C)=O,,,inactive
NC(=S)N/N=C\C12CC3CC(CC(C3)C1)C2,,,inactive
NCCCNCCCCN1CCOC1=O,> 200 µM,50.1 µM,
COC(=O)C(=O)C(C(=O)C(=O)Nc1cc([N+](=O)[O-])ccc1C#N)c1nc2ccccc2[nH]c1=O (stereo not given),,,inactive
O=C(O)CCCCCCCC(O)C(O)CCCCCCCC(=O)O (stereo not given),> 195 µM,> 195 µM,
CCN(CC)CCC(=O)c1ccc(Cl)c(Cl)c1,> 5010 µM,> 5010 µM,
O=S(=O)(O)C(O)CCCC(O)S(=O)(=O)O (stereo not given),> 200 µM,10.7 µM,
CCOC(=O)/C(=C/c1ccccc1)N(CC)CC,> 55 µM,> 55 µM,
Cc1cc(S(=O)(=O)Nc2nc(N)nc(N3N=CCC3C)n2)c(S)cc1Cl (stereo not given),55 µM,> 200 µM,
O=S(=O)(N/N=C/c1ccc(Cl)cc1Cl)c1ccccc1,,,inactive
COc1cc2c(cc1OC)C(Cc1cc(Br)c(OC)c(OC)c1)=[N+](C)CC2,> 447 µM,33.9 µM,
Nc1ccc(Nc2nc(F)nc(-c3c4ccccc4c4n3CCS4)n2)cc1,> 7.24 µM,3.63 µM,
COC(=O)C(=O)C(C(=O)OC)C(=O)C(=O)Nc1c(Cl)cc([N+](=O)[O-])cc1Cl (stereo not given),> 23.4 µM,> 23.4 µM,
CN1C(=O)/C(=C2\SC(=O)N(CNc3ccc(Br)cc3)C2=O)c2ccccc21,> 200 µM,15.5 µM,
CN1c2ccccc2NC(CC(=O)O)C2CC=CN21 (stereo not given),> 955 µM,631 µM,

Structure (SMILES),EC50,IC50,outcome
Cn1c(=O)[nH]n(C2Cn3c(=O)n(C)c(=O)n3-c3ccccc32)c1=O (stereo not given),> 200 µM,> 200 µM,
CC1(C)OC2OC(CO)C(N)C2O1 (stereo not given),,,inactive
COc1ccc2nc(NC(=O)C(=O)C(C#N)c3ccc(Cl)c(Cl)c3)sc2c1 (stereo not given),,,inactive
COc1cccc(C2c3cc4c(cc3OC3COC(=O)C32)OCO4)c1OC (stereo not given),> 200 µM,120 µM,
Cc1c(-c2ccc(-c3ccccc3F)cc2)nc2ccc(F)cc2c1C(=O)O,> 631 µM,0.2 µM,
CCN(CC)CCCC(C)Nc1cc(-c2ccccc2)nc2ccc(OC)cc12 (stereo not given),> 363 µM,2 µM,
OC12c3ccccc3C3CCC4(OCCO4)C3C1c1ccccc12 (stereo not given),> 200 µM,141 µM,
CC(O[Si](c1ccccc1)(c1ccccc1)C(C)(C)C)[C@H](NC(=O)OC(C)(C)C)C(=O)O (stereo not given in full),> 40.7 µM,> 40.7 µM,
CCOC(=O)c1c(NC(=O)C(F)(F)F)[nH]c(SSc2[nH]c(NC(=O)C(F)(F)F)c(C(=O)OCC)c2C(=O)OCC)c1C(=O)OCC,> 89.1 µM,4.27 µM,
Cc1cn(C2CC(N=[N+]=[N-])C(COC(=O)CCCCCCCCCCCc3ccccc3)O2)c(=O)[nH]c1=O (stereo not given),0.0955 µM,89.1 µM,
CC1CC(=O)Nc2ccc(N=NN(C)C)cc2N1C=O (stereo not given),> 200 µM,> 200 µM,
Clc1ccc(OC2CCO2)cc1Cl (stereo not given),> 162 µM,145 µM,
CC(C)(CO)N1C(=O)c2ccccc2C1(O)c1ccc(Cl)cc1 (stereo not given),> 200 µM,91.2 µM,
COC(=O)C(C)(N=Cc1ccccc1)c1ccccc1 (stereo not given),> 200 µM,> 200 µM,
O=c1n(-c2ccccc2)c(=O)n2n1C1CC3c4ccccc4C1C32 (stereo not given),> 22.9 µM,> 22.9 µM,
CN(C)CCNc1c2ccccc2nc2cccc([N+](=O)[O-])c12,> 2 µM,0.024 µM,
C(=C1/NC(c2ccccc2)=Nc2ccccc21)/c1ccccc1,> 6.76 µM,> 6.76 µM,
Cc1cc2ncc3c(=O)n(NS(=O)(=O)c4ccc(N)cc4)ccc3n2n1,> 200 µM,> 200 µM,
C=CCOC(=O)C1(C)C(=O)CCC1CC/C=C/C(C)=O (stereo not given),> 129 µM,6.03 µM,
O=C1c2ccccc2-c2c1c1ccccc1c(=O)n2CCO,> 34.7 µM,1.95 µM,
COC(=O)C(=O)C(C(=O)C(=O)Nc1nc2ccc(C)cc2s1)c1nc2ccc([N+](=O)[O-])cc2[nH]c1=O (stereo not given),> 132 µM,126 µM,
CN1CC(C)(C)NC(=O)[C@@](C)(OCc2ccccc2)CN(C)CC(C)(C)NC(=O)[C@](C)(OCc2ccccc2)C1,> 200 µM,120 µM,
